Laboratory results from paper PMC5739597, “Discovery and evaluation of triple inhibitors of VEGFR-2, TIE-2 and EphB4 as anti-angiogenic and anti-cancer agents” (Oncotarget, 2017).
pIC50: −log10 of the molar value. Where “and” joins values, the source holds several entries; their conditions need not be identical. Equal entries are not always repeated.

How the values were obtained:
[1] = tested on: human epidermoid carcinoma cell line (A431); assay: Anti-proliferative MTT assay, A431; format: cell-based; details: A-431, 48 h
Experimental: (§1) These RTKs play critical roles in the proliferation of various cancers. Therefore, RTKs inhibition generally translate well into anti-proliferation activity.
(§2) Exponentially growing cells were harvested and plated in 96-well plates at a concentration of 1×10^4 cells/well per well, and then were incubated at 37°C for 24 h. […] Subsequently, 22 μL fresh MTT (5 mg/mL) was added to each well and incubated at 37°C for 4 h. […] DMSO was added to each well after supernatant was discarded. Absorbance values were determined by a microplate reader (Bio-Rad Instruments) at 490 nm. The IC50 values were calculated according to inhibition ratios.

[2] = tested on: normal human liver cells (QSG7701); assay: Cytotoxicity on normal cells, QSG7701; format: cell-based; details: MTT, 48 h, read-out: Anti-proliferative activity IC50, QSG7701 (normal cells)
Experimental: (§3) In order to determine the anti-angiogenic effect of these multi-target inhibitors, we evaluated their effect on HECs (EA.hy926) viability using cell counting kit-8 (CCK-8) method.
as §1, §2

[3] = tested on: human breast cancer cell lines (MCF-7); assay: Anti-proliferative MTT assay, MCF-7; format: cell-based; details: MCF7, 48 h
Experimental: as §1, §2

EA.hy926 cells = assay: Apoptosis detection assay (annexin V-FITC/PI flow cytometry); format: cell-based, human; details: 48 h, negative control 10.35%
Experimental: A substantial and dose-dependent proapoptotic activity in HECs at various concentrations for 48 h was observed. The apoptotic EA.hy926 cells (10.35%) of negative control group were depicted in Figure 3A.
The cells were then harvested by trypsinization and washed twice with cold PBS. After centrifugation and removal of the supernatants, EA.hy926 cells were re-suspended in 400 μL of 1×binding buffer which was then added to 5 μL of annexin V-FITC and incubated at room temperature for 15 min. After adding 10 μL of PI the cells were incubated at room temperature for another 15 min in the dark. The stained cells were analyzed by a flow cytometer (BD Accuri C6).

VEGFR-2 = VEGFR-2 (Homo sapiens, UniProt P35968); assay: VEGFR-2/cell membrane chromatography (CMC) affinity evaluation; format: binding
Sequence of VEGFR-2 (P35968 20-1356): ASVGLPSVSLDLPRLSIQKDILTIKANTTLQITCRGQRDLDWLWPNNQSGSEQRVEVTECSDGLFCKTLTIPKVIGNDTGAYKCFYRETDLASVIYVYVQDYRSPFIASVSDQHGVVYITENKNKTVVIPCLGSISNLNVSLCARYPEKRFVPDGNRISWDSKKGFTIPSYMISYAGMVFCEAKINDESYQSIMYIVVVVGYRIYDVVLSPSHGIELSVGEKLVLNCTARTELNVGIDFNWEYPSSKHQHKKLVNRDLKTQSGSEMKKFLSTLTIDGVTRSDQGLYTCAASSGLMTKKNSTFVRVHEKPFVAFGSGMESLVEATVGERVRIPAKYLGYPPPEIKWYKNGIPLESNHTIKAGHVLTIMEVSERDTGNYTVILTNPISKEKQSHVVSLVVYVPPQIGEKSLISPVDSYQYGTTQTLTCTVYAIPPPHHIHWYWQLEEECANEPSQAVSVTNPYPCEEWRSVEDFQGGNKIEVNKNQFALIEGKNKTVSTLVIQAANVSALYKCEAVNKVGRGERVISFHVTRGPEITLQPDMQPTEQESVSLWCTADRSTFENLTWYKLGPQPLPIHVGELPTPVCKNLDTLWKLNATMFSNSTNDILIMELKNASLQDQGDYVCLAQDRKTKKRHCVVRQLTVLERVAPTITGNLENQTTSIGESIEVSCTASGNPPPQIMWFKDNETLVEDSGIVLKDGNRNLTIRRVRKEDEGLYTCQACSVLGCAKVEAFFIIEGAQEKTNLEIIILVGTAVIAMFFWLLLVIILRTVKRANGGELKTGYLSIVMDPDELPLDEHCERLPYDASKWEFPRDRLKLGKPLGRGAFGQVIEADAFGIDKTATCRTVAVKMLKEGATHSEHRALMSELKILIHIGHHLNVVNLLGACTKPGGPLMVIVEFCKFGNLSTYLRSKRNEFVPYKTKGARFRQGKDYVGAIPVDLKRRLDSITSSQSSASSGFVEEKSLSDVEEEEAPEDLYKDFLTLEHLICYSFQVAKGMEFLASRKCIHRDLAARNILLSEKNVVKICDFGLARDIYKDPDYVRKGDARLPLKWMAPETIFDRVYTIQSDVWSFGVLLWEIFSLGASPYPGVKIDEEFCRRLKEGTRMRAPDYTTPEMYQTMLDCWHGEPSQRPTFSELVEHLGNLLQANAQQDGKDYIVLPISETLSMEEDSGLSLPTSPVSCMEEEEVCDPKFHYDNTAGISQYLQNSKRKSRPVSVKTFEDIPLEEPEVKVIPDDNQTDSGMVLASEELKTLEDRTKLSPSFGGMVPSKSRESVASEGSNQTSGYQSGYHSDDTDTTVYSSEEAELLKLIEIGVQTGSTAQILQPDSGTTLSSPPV
Experimental: In previous studies, artificial cultures highly expressing VEGFR-2 on HEK293 cell lines were constructed. […] Chromatographic conditions: 10 mm×2.0 mm; flow rate0.6 mL/min; column temperature 37°C; mobile phase 5 mM PBS, pH 7.4; detection wavelength 270 nm.
The VEGFR-2 cell membrane stationary phase was prepared as previous reported. Aqueous ammonium acetate buffer solution (pH 7.4, 5 mM) was pumped at a flow rate of 0.2 mL/min as the mobile phase after VEGFR-2/CMC column was loaded onto the chromatography system at the temperature of 37°C. […] The mobile phase was 5.0 mM phosphate burred saline with a 0.6 mL/min flow rate at a column temperature of 37°C. The detected wavelength was 270 nm. The test compound was injected into the VEGFR-2/CMC column and their retention characteristics were identified to evaluate their affinity with VEGFR-2.

[4] = tested on: human cervical cancer cell line (HeLa); assay: Anti-proliferative MTT assay, HeLa; format: cell-based; details: 48 h
Experimental: as §1, §2

VEGFR-1 = VEGFR-1 (Homo sapiens, UniProt P17948); assay: Kinase-Glo Plus RTK selectivity assay, VEGFR-1; format: biochemical; details: 10 μM ATP
Sequence of VEGFR-1 (P17948 27-1338, species assumed): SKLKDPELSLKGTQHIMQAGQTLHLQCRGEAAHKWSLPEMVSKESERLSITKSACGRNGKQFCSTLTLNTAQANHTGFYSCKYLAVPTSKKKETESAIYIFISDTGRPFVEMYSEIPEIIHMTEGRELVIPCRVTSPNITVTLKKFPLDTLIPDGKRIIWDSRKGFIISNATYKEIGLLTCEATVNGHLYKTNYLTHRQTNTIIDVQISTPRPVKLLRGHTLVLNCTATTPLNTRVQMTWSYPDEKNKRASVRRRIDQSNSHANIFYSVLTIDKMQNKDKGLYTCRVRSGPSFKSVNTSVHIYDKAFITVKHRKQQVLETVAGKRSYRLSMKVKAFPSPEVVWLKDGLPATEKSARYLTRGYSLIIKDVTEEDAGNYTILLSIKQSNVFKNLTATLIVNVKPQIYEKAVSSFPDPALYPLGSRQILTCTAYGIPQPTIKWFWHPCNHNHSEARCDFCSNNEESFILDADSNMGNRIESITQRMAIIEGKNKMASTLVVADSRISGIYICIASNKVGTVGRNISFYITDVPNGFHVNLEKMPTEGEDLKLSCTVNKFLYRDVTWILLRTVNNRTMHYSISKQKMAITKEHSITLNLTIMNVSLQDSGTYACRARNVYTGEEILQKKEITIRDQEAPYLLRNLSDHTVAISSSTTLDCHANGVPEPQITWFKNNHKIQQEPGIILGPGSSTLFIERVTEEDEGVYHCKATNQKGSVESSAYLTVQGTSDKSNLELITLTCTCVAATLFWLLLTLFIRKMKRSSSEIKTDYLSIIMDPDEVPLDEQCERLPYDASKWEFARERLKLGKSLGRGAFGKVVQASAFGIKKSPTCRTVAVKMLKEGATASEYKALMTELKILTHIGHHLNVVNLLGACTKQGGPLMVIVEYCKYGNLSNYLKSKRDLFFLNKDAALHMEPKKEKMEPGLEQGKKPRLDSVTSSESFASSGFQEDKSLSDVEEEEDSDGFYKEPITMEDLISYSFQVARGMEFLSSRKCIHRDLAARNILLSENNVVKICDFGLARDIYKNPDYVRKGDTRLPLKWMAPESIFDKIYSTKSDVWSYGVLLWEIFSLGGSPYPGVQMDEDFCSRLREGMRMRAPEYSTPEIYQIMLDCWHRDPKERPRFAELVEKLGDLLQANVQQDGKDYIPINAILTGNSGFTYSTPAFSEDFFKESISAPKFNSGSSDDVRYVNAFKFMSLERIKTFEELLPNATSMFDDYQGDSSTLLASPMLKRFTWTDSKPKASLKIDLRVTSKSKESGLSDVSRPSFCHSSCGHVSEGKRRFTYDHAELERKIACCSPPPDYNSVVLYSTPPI
Experimental: (§4) A 50 μL reaction mixture contains 40 mM Tris, pH 7.4, 10 mM MgCl2, 0.1 mg/ml BSA, 1 mM DTT, 10 μM ATP, kinase and substrate (0.2 mg/mL Poly(Glu, Tyr)/10 μM ATP). The test compounds were diluted in 10% DMSO and 5 μL of the dilution was added to a 50 μL reaction so that the final concentration of DMSO is 1% in all of reactions. The assay was performed using Kinase-Glo Plus luminescence kinase assay kit. It measures kinase activity by quantitating the amount of ATP remaining in solution following a kinase reaction. The luminescent signal from the assay is correlated with the amount of ATP present and is inversely correlated with the amount of kinase activity. The IC50 values were calculated using nonlinear regression with normalized dose−response fit using Prism GraphPad software.

MCF-7 xenograft = assay: In vivo MCF-7 xenograft mice model; details: ig; for Final body weight / Tumor growth inhibition / Final tumor weight: 21 days; for Final tumor weight: control 0.848±0.5; for Initial body weight: before treatment
Experimental: Six-week old female BALB/c mice were purchased from Shanghai Laboratory Animal center of the Chinese Academy of Sciences and housed under aseptic and ventilated condition. The mice were inoculated by subcutaneous injection with MCF-7 cancer cells suspended in 5% saline. Tumor volume and weight were measured on alternate days. Body weights were monitored as an indicator of toxicity. […] Treatment started from the next day and continued for 21 days. All mice were killed at the end of the experiment, and subcutaneous tumors were removed and weighted.

TIE-2 = TIE-2 (Homo sapiens, UniProt Q02763); assay: ADP-Glo in vitro RTK inhibition assay, TIE-2; format: biochemical; details: ATP 50 μM
Sequence of TIE-2 (Q02763 23-1124): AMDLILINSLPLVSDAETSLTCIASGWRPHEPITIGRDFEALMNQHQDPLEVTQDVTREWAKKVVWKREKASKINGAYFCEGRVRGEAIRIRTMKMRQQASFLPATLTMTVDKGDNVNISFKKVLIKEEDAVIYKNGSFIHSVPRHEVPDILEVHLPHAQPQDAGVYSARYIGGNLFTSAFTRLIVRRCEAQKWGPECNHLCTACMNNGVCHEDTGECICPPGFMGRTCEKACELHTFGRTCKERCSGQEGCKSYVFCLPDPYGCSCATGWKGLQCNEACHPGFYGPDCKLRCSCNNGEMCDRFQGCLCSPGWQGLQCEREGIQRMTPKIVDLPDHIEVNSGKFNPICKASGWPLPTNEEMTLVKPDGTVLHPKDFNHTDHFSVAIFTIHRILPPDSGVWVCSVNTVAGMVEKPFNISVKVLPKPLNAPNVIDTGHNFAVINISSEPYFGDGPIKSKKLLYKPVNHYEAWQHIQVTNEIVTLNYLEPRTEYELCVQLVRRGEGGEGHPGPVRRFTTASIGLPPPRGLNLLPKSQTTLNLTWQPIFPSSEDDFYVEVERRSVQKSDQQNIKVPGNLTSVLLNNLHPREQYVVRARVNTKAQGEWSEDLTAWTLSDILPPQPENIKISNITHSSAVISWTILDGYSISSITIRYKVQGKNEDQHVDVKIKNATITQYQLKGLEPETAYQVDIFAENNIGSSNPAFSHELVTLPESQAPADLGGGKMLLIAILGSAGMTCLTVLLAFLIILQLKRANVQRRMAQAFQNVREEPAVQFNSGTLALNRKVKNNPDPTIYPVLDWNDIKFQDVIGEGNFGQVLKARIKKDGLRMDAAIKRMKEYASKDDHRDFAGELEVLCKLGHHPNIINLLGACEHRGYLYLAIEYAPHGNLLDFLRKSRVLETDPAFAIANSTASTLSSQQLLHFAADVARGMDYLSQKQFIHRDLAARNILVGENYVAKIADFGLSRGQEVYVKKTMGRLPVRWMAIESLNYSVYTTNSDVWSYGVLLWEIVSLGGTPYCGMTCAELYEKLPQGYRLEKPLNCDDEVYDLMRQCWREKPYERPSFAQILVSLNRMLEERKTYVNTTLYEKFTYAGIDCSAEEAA
Experimental: In order to validate the direct effect of title compounds on VEGFR-2, Tie-2, and EphB4 kinases, we performed in vitro assay using the ADP-Glo Kinase Assay Kit (Promega, Wisconsin, USA).
The kinase assay was performed in a reaction mixture of final volume of 10 μL. […] The plate was incubated at 30°C for 1 h. After the plate was cooled at room temperature for 5 min, 5 μL of ADP-Glo reagent was added into each well to stop the reaction and consume the remaining […] within 40 min. At the end, 10 μL of kinase detection reagent was added into the well and incubated for 30 min to produce a luminescence signal. […] The assay plate was incubated at 30°C for 4 h. After the plate was cooled at room temperature for 5 min, 5 μL of ADP-Glo reagent was added into each well to stop the reaction and consume the remaining […] within 1 h. At the end, 10 μL of kinase detection reagent was added into each well and incubated for 30 min to produce a luminescence signal. The luminescence was read by VICTOR-X multi-label plate reader.

[5] = tested on: human pancreatic cancerous cell lines (PANC-1); assay: Anti-proliferative MTT assay, PANC-1; format: cell-based; details: 48 h
Experimental: as §1, §2

[6] = tested on: human lung cancer cell (A549); assay: Anti-proliferative MTT assay, A549; format: cell-based; details: 48 h
Experimental: as §1, §2

[7] = tested on: human colon carcinoma cell line (LOVO); assay: Anti-proliferative MTT assay, LOVO; format: cell-based; details: 48 h
Experimental: as §1, §2

EGFR = EGFR (Homo sapiens, UniProt P00533); assay: Kinase-Glo Plus RTK selectivity assay, EGFR; format: biochemical; details: 10 μM ATP
Sequence of EGFR (P00533 25-1210, species assumed): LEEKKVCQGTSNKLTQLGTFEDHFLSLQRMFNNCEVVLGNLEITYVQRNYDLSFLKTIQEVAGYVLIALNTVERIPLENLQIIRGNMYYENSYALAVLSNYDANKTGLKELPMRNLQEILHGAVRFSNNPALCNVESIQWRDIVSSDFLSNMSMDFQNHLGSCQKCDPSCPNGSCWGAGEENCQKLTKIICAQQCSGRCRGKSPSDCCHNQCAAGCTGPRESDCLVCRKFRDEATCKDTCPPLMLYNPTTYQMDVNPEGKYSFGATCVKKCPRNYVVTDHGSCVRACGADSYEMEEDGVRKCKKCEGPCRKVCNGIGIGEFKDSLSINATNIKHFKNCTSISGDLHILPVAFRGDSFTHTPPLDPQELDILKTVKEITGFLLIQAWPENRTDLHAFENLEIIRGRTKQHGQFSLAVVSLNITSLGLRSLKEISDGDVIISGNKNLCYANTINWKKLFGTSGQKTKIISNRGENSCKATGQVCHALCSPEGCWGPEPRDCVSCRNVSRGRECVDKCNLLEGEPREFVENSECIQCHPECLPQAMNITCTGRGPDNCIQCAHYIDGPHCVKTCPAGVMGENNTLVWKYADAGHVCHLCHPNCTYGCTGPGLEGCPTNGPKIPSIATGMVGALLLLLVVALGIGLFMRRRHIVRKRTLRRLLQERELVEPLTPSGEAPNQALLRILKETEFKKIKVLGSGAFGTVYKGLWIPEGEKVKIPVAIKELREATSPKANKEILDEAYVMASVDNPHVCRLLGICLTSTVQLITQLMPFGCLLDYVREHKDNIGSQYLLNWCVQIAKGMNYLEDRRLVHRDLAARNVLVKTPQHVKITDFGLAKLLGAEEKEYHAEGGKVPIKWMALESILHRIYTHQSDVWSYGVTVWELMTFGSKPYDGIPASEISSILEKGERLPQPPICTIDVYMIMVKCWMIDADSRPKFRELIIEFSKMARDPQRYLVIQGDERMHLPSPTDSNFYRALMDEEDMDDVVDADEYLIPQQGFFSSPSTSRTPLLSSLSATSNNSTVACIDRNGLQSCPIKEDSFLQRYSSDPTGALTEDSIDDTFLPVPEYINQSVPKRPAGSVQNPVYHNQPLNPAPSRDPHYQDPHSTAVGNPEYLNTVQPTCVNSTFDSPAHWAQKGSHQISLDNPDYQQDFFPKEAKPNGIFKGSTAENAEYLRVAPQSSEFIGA
Experimental: as §4

[8] = tested on: human embryonic kidney 293 (HEK293); assay: Cytotoxicity on normal cells, HEK293; format: cell-based; details: MTT, 48 h, read-out: Anti-proliferative activity IC50, HEK293 (normal cells)
Experimental: as §3, §1, §2

c-Kit = c-Kit (Homo sapiens, UniProt P10721); assay: Kinase-Glo Plus RTK selectivity assay, c-Kit; format: biochemical; details: 10 μM ATP
Experimental: as §4

Compound `O=C(Nc1ccc(-c2ccc3c(=O)[nH]cnc3c2)cc1)Nc1ccc(F)c(F)c1` [QDAU5, 1-(3,4-difluorophenyl)-3-(4-(4-oxo-3,4-dihydroquinazolin-7-yl)phenyl)urea] has a pIC50 [1] of 4.77, a pIC50 [2] of under 4.00 and a pIC50 [3] of 5.67. For the same compound, the “percentage of early apoptotic cells” value (EA.hy926 cells; EA.hy926, 5 nM) was 19.55%, the “percentage of early apoptotic cells” value (EA.hy926 cells; EA.hy926, 20 nM) was 28.35% and the “percentage of early apoptotic cells” value (EA.hy926 cells; EA.hy926, 40 nM) was 31.43%. For the same compound, the “Direct competitive assay on VEGFR-2/CMC (change in K' of multi-target RTK inhibitors)” value (VEGFR-2; QDAU5 at increasing concentrations in the mobile phase) was “interacted with the same site of VEGFR-2”, the “Retention time on VEGFR-2/cell membrane stationary phase column” value (VEGFR-2; flow rate 0.6 mL/min, 37°C, 5 mM PBS pH 7.4, 270 nm) was 38 min and 38.0 min and the pIC50 [4] was 5.25. For the same compound, the pIC50 (VEGFR-1) was 6.72, the Final body weight (MCF-7 xenograft; 20 mg/kg daily) was 17.4 ± 1.0 g and the Tumor growth inhibition (MCF-7 xenograft; 20 mg/kg daily) was 7.2%. For the same compound, the Final tumor weight (MCF-7 xenograft; 20 mg/kg daily) was 0.787 ± 0.7 g, the Initial body weight (MCF-7 xenograft; 20 mg/kg) was 18.7 ± 0.8 g and the Final body weight (MCF-7 xenograft; 40 mg/kg daily) was 18.9 ± 1.2 g. For the same compound, the Tumor growth inhibition (MCF-7 xenograft; 40 mg/kg daily, 40 mg/kg) was 24%, the Final tumor weight (MCF-7 xenograft; 40 mg/kg daily) was 0.642 ± 0.8 g and the Initial body weight (MCF-7 xenograft; 40 mg/kg) was 18.4 ± 0.6 g. It also gave a Final body weight (MCF-7 xenograft; 80 mg/kg daily) of 16.1 ± 1.0 g, a Tumor growth inhibition (MCF-7 xenograft; 80 mg/kg daily, 80 mg/kg) of 47% and a Final tumor weight (MCF-7 xenograft; 80 mg/kg daily) of 0.449 ± 0.9 g. For the same compound, the Initial body weight (MCF-7 xenograft; 80 mg/kg) was 18.3 ± 0.7 g, the pIC50 (TIE-2) was 8.05 and the pIC50 [5] was 4.60. For the same compound, the pIC50 [6] was 5.08, the pIC50 [7] was 5.30 and the pIC50 (EGFR) was 7.01. For the same compound, the pIC50 [8] was under 4.00 and the pIC50 (c-Kit) was 6.85.
